The test deals with Kv1.3 potassium channel (Homo sapiens, UniProt P22001). In words: Whole-cell patch-clamp assay for inhibitory activity against Kv1.3 (peak current). It counts as cell-based. The following applies: HEK293 cells stably expressing Kv1.3, patch-clamp. From the text:
The voltage stimulation protocol for recording whole-cell Kv1.X potassium currents via patch-clamp was as follows. After formation of a whole-cell seal, the cell membrane voltage was clamped at −80 mV, and then stepped to +40 mV for 500 ms. […] The test data were acquired by EPC-10 amplifier (HEKA) and stored in the PatchMaster (HEKA) software. Recording electrodes were drawn from capillary glass tubes using a microelectrode puller. Under an inverted microscope, the recording electrode was brought into contact with the cell surface by manipulating a microelectrode manipulator. Negative-pressure suction was applied to form a GΩ seal. After formation of the […], a rapid capacitance compensation was given. The application of negative pressure was continued to rupture the cell membrane, forming a whole-cell recording mode. Then, a slow capacitance compensation was given, and the membrane capacitance and series resistance were recorded. No current leakage compensation was provided. Once the whole-cell recorded Kv1.X current stabilized, drug administration was started. Each drug concentration was allowed to act for 5 min (or until the current reached a steady state) before the next concentration was tested. Multiple concentrations were tested for each test compound. The cover glass plated with the cells was placed in a recording bath of the inverted microscope. The test compound and the compound-free extracellular fluid were allowed to sequentially flow through the recording bath from low concentrations to high concentrations using a gravity perfusion method, thus acting on the cells, and liquid exchange was performed using a vacuum pump during recording. For each cell, the current detected in the compound-free extracellular liquid was used as its own control group. The test was independently repeated three times using at least three cells per concentration. All electrophysiological experiments were performed at room temperature. […] First, the peak current after the action of each drug concentration and the peak current of the blank control were standardized and then the inhibition rate corresponding to each drug concentration was calculated Subsequently, the mean, standard deviation (SD), and standard error (SE) were calculated for the inhibition rate corresponding to each concentration. Using the above equation, the IC50 value for each compound was calculated, and the dose-dependent effect was subjected to non-linear fitting, where IC50 is the half maximal inhibitory concentration. The IC50 calculation and the curve fitting were performed using the GraphPad Prism software.

The record followed here is patent publication US20260224536A1, “ARYL HETEROCYCLIC KV1.3 INHIBITOR, PREPARATION METHOD THEREFOR, AND USE THEREOF” (SHANGHAI SHENSHI WISE TECHNOLOGY CO., LTD., priority 2022, published 2026).

Kv1.3 potassium channel, sequence (P22001 whole entry): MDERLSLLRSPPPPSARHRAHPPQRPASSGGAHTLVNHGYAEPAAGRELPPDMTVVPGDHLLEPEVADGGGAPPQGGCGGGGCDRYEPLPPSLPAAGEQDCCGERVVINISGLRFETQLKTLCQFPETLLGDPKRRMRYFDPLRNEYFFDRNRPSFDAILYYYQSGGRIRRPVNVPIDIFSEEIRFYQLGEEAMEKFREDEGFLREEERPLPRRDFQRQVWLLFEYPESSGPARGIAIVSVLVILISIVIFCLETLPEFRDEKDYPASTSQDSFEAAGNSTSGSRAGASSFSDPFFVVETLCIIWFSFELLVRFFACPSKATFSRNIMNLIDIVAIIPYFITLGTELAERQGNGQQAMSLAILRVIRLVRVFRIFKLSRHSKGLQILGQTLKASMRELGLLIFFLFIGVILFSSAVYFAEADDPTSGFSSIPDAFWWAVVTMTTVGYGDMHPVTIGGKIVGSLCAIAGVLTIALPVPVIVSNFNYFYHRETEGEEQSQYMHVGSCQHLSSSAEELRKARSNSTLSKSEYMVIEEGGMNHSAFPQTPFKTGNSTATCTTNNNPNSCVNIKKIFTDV

Regarding `CC1(C)CC(c2nnc3n2CC(c2c(O)ccc(Cl)c2Cl)C3)CC(C)(C)N1` (stereo not shown) [Example 88, 3,4-Dichloro-2-(3-(2,2,6,6-tetramethylpiperidin-4-yl)-6,7-dihydro-5H-pyrrolo[2,1-c][1,2,4]triazol-6-yl)phenol], half-maximal inhibition (IC50) was put at 58.6 nM.
On to `CN1CCC(c2nnc3n2C[C@H](c2c(O)ccc(Cl)c2Cl)C3)C1` (stereo partly drawn) [Example 49, 3,4-Dichloro-2-((6S)-3-(1-methylpyrrolidin-3-yl)-6,7-dihydro-5H-pyrrolo[2,1-c][1,2,4]triazol-6-yl)phenol], for which the 50% inhibitory concentration (IC50) came out at 3.64 nM.
The compound `Oc1ccc(Cl)c(Cl)c1[C@@H]1Cc2nnc([C@H]3C[C@@H]4CC[C@H]3O4)n2C1` [Example 62, 2-((S)-3-((1R,2R,4S)-7-Oxabicyclo[2.2.1]heptan-2-yl)-6,7-dihydro-5H-pyrrolo[2,1-c][1,2,4]triazol-6-yl)-3,4-dichlorophenol] gave an IC50 of 16.4 nM.
Then `CC(C)(C)c1nnc2n1CC(c1c(O)ccc(Cl)c1Cl)C2` (stereo not shown) [Example 16, 2-(3-(tert-Butyl)-6,7-dihydro-5H-pyrrolo[2,1-c][1,2,4]triazol-6-yl)-3,4-dichlorophenol], with 74.7 nM; and `Oc1ccc(Cl)c(Cl)c1[C@@H]1Cc2nnc(-c3ccnc(C(F)(F)F)c3)n2C1` [Example 111, (S)-3,4-Dichloro-2-(3-(2-(trifluoromethyl)pyridin-4-yl)-6,7-dihydro-5H-pyrrolo[2,1-c][1,2,4]triazol-6-yl)phenol], with 14.4 nM.
Then `O=C(C1CC1)N1CCC(c2nnc3n2CC(c2c(O)ccc(Cl)c2Cl)C3)CC1` (stereo not shown) [Example 10, Cyclopropyl(4-(6-(2,3-dichloro-6-hydroxyphenyl)-6,7-dihydro-5H-pyrrolo[2,1-c][1,2,4]triazol-3-yl)piperidin-1-yl)methanone], with 27.7 nM; and `O=c1n(C2CCOCC2)nc2n1C[C@H](c1c(O)ccc(Cl)c1Cl)C2` [Example 108, (S)-6-(2,3-Dichloro-6-hydroxyphenyl)-2-(tetrahydro-2H-pyran-4-yl)-2,5,6,7-tetrahydro-3H-pyrrolo[2,1-c][1,2,4]triazol-3-one], with 27.8 nM; and `Cn1ccc(-c2nnc3n2C[C@H](c2c(O)ccc(Cl)c2Cl)C3)cc1=O` [Example 39, (S)-4-(6-(2,3-Dichloro-6-hydroxyphenyl)-6,7-dihydro-5H-pyrrolo[2,1-c][1,2,4]triazol-3-yl)-1-methylpyidin-2(1H)-one], with 52.1 nM.
`CCc1c2c(nn1C)CC(c1c(O)ccc(Cl)c1Cl)C2` (stereo not shown) [Example 113, 3,4-Dichloro-2-(3-ethyl-2-methyl-2,4,5,6-tetrahydrocyclopenta[c]pyrazol-5-yl)phenol] registered an IC50 of 57.9 nM. This IC50 and that of the compound before are within 1.5-fold of each other.
`CCn1ncc2c1C[C@@H](c1c(O)ccc(Cl)c1Cl)C2` [Example 117, (S)-3,4-dichloro-2-(1-ethyl-1,4,5,6-tetrahydrocyclopenta[c]pyrazol-5-yl)phenol] came in with an IC50 of 65 nM. The IC50 values of the last two compounds are within 1.5-fold of each other.
The figure for `Oc1ccc(Cl)c(Cl)c1[C@@H]1Cc2nnc(C3CCCNC3)n2C1` (single isomer, unassigned) [Example 58] is 12 nM.
With `O=C1C[C@@H](c2nnc3n2C[C@H](c2c(O)ccc(Cl)c2Cl)C3)CN1` [Example 52, (R)-4-((S)-6-(2.3-Dichloro-6-hydroxyphenyl)-6,7-dihydro-5H-pyrrolo[2,1-c][1,2,4]triazol-3-yl)pyrrolidin-2-one], the IC50 was 14 nM.
`CC(C)c1nnc2n1CC(c1c(O)ccc(Cl)c1Cl)C2` (stereo not shown) [Example 8, 3,4-Dichloro-2-(3-isopropyl-6,7-dihydro-5H-pyrrolo[2,1-c][1,2,4]triazol-6-yl)phenol] registered an IC50 of 20.6 nM.
Compound `O=c1n([C@H]2CCOC2)nc2n1C[C@H](c1c(O)ccc(Cl)c1Cl)C2` [Example 109, (S)-6-(2,3-Dichloro-6-hydroxyphenyl)-2-((S)-tetrahydrofuran-3-yl)-2,5,6,7-tetrahydro-3H-pyrrolo[2,1-c][1,2,4]triazol-3-one] returned an IC50 of 31.7 nM.
`O=C1CC(c2nnc3n2C[C@H](c2c(O)ccc(Cl)c2Cl)C3)CCN1` (single isomer, unassigned) [Example 56] displayed a 50% inhibitory concentration (IC50) of 20.6 nM.
The figure for `Oc1ccc(Cl)c(Cl)c1[C@@H]1Cc2ncc(C3CCCC3)n2C1` [Example 90, (S)-3,4-Dichloro-2-(3-cyclopentyl-6,7-dihydro-5H-pyrrolo[1,2-a]imidazol-6-yl)phenol] is 7.08 nM; for `CC(C)N1CCC(Oc2nnc3n2CC(c2c(O)ccc(Cl)c2Cl)C3)CC1` (stereo not shown) [Example 102, 3,4-dichloro-2-(3-((1-isopropylpiperidin-4-yl)oxy)-6,7-dihydro-5H-pyrrolo[2,1-c][1,2,4]triazol-6-yl)phenol] it is 6.99 nM.
In turn, `Oc1ccc(Br)c(Cl)c1C1Cc2nnc([C@@H]3CCOC3)n2C1` (stereo partly drawn) [Example 120, (S)-4-Bromo-3-chloro-2-(3-(tetrahydrofuran-3-yl)-6,7-dihydro-5H-pyrrolo[2,1-c][1,2,4]triazol-6-yl)phenol] had an IC50 of 20.2 nM.
On to `Cn1cc(-c2cnc3n2CC(c2c(O)ccc(Cl)c2Cl)C3)cn1` (stereo not shown) [Example 97, 3,4-Dichloro-2-(3-(1-methyl-1H-pyrazol-4-yl)-6,7-dihydro-5H-pyrrolo[1,2-a]imidazol-6-yl)phenol], for which half-maximal inhibition (IC50) required 11.7 nM.
As for `N#Cc1cccc(-c2nnc3n2CC(c2c(O)ccc(Cl)c2Cl)C3)c1` (stereo not shown) [Example 9, 3-(6-(2,3-dichloro-6-hydroxyphenyl)-6,7-dihydro-5H-pyrrolo[2,1-c][1,2,4]triazol-3-yl)benzonitrile], the IC50 came to 17.1 nM.
The compound `O=C1CC(c2nnc3n2C[C@H](c2c(O)ccc(Cl)c2Cl)C3)CCN1` (single isomer, unassigned) [Example 57] had an IC50 of 11.4 nM.
`CC(C)N1CCN(C(=O)c2nnc3n2CC(c2c(O)ccc(Cl)c2Cl)C3)CC1` (stereo not shown) [Example 14, (6-(2,3-Dichloro-6-hydroxyphenyl)-6,7-dihydro-5H-pyrrolo[2,1-c][1,2,4]triazol-3-yl)(4-isopropylpiperazin-1-yl)methanone] registered a half-inhibitory concentration (IC50) of 19.6 nM.
The figure for `CCn1cc2c(n1)CC(c1c(O)ccc(Cl)c1Cl)C2` (stereo not shown) [Example 112, 3,4-Dichloro-2-(2-ethyl-2,4,5,6-tetrahydrocyclopenta[c]pyrazol-5-yl)phenol] is 43.1 nM; for `Oc1ccc(Cl)c(Cl)c1[C@H]1Cc2ncc(C3CCCC3)n2C1` [Example 91, (R)-3,4-dichloro-2-(3-cyclopentyl-6,7-dihydro-5H-pyrrolo[1,2-a]imidazol-6-yl)phenol] it is 4.92 nM; for `Oc1ccc(Cl)c(Cl)c1[C@@H]1Cc2nnc(-c3cccc4[nH]ncc34)n2C1` [Example 41, (S)-2-(3-(1H-Indazol-4-yl)-6,7-dihydro-5H-pyrrolo[2,1-c][1,2,4]triazol-6-yl)-3,4-dichlorophenol] it is 23.8 nM.
Consider `CCc1cnc2n1C[C@H](c1c(O)ccc(Cl)c1Cl)C2` [Example 92, (S)-3,4-Dichloro-2-(3-ethyl-6,7-dihydro-5H-pyrrolo[1,2-a]imidazol-6-yl)phenol], for which the IC50 turned out to be 5.51 nM. Against the preceding compound, the IC50 is about 4.3-fold lower.
`Oc1ccc(Cl)c(Cl)c1C1Cc2nnc(C3CCN(C4CCCCC4)CC3)n2C1` (single isomer, unassigned) [Example 79] registered an IC50 of 14.8 nM.
As to `COC(=O)N1CCC(c2nnc3n2C[C@H](c2c(O)ccc(Cl)c2Cl)C3)C1` (single isomer, unassigned) [Example 50], half-maximal inhibition (IC50) was put at 10.9 nM. This IC50 and that of the compound before are within 1.5-fold of each other.

One may read the IC50 as the concentration that inhibits the measured activity by half.
